ChEMBL document CHEMBL3817803, “Design, Synthesis, and Evaluation of Donepezil-Like Compounds as AChE and BACE-1 Inhibitors” (ACS Med Chem Lett, 2016)
Calls of active or inactive are those of the source. No cut-off for these calls is given here.

How the values were obtained:
[1] = biological target: T1, Cholinesterase (Equus caballus, UniProt P81908); experiment: Non-competitive inhibition of horse serum BuChE using butyrylthiocoline iodide as substrate incubated for 20 mins by Lineweaver-Burk plot analysis
[2] = biological target: Cholinesterase (Equus caballus) (UniProt P81908); experiment: Inhibition of horse serum BuChE using butyrylthiocholine iodide as substrate at 2 uM incubated for 20 mins by Ellman method
[3] = Selectivity ratio of Ki for horse serum BuChE to Ki for human erythrocytes AchE
[4] = Selectivity ratio of IC50 for horse serum BuChE to IC50 for human erythrocytes AchE
[5] = biological target: Cholinesterase (Equus caballus) (UniProt P81908); experiment: Inhibition of horse serum BuChE using butyrylthiocoline iodide as substrate at 2 uM preincubated for 20 mins followed by 100 fold dilution by Ellman method
[6] = biological target: T2, Acetylcholinesterase (Homo sapiens, UniProt P22303); experiment: Non-competitive inhibition of human erythrocytes AchE using acetylthiocholine iodide as substrate incubated for 20 mins by Lineweaver-Burk plot analysis
[7] = biological target: T2, Acetylcholinesterase; experiment: Inhibition of human erythrocytes AchE using acetylthiocholine iodide as substrate incubated for 20 mins by Ellman method
[8] = biological target: T1, Cholinesterase; experiment: Inhibition of horse serum BuChE using butyrylthiocoline iodide as substrate incubated for 20 mins by Ellman method
[9] = biological target: T1, Cholinesterase; experiment: Mixed inhibition of horse serum BuChE using butyrylthiocoline iodide as substrate incubated for 20 mins by Lineweaver-Burk plot analysis
[10] = biological target: Beta-secretase 1 (Mus musculus) (UniProt P56818); experiment: Inhibition of mouse BACE-1 at 1 uM preincubated for 10 mins followed by fluorescent peptide substrate addition measured for 30 mins by fluorescence plate reader method
[11] = biological target: Beta-secretase 1 (Mus musculus, UniProt P56818); experiment: Inhibition of mouse BACE-1 preincubated for 10 mins followed by fluorescent peptide substrate addition measured for 30 mins by fluorescence plate reader method
[12] = biological target: T2, Acetylcholinesterase
Description: Mixed inhibition of human erythrocytes AchE using acetylthiocholine iodide as substrate incubated for 20 mins by Lineweaver-Burk plot analysis

T1 sequence (P81908 whole entry): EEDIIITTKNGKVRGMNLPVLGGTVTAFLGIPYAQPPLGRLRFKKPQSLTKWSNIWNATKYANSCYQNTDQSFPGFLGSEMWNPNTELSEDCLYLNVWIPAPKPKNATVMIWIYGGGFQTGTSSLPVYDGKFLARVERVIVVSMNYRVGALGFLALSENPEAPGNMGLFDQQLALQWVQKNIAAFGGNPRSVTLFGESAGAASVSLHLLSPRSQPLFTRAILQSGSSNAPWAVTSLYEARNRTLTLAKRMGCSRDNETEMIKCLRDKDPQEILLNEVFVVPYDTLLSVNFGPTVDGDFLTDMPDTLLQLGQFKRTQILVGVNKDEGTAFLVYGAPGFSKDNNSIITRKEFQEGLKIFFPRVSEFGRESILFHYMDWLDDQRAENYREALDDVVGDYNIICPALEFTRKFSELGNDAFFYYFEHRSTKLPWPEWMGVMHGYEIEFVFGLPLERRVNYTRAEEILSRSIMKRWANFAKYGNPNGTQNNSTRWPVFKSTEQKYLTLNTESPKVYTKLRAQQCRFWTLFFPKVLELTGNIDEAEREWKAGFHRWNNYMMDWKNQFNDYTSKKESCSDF
Sequence of Cholinesterase (Equus caballus) (P81908 whole entry): as above
Sequence of Beta-secretase 1 (Mus musculus) (P56818 whole entry): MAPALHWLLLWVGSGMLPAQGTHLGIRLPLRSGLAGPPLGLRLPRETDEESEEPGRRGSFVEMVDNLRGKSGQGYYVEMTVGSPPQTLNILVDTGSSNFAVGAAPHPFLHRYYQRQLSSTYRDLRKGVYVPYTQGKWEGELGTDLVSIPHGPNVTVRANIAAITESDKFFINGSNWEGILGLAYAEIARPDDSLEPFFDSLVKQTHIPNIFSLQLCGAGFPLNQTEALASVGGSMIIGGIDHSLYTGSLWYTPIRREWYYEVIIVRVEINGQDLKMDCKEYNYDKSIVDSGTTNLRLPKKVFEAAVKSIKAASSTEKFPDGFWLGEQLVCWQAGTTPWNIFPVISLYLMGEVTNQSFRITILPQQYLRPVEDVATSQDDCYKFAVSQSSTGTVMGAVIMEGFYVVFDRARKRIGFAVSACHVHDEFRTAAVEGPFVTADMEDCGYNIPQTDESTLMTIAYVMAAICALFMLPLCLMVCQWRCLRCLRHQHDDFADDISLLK
Sequence of Beta-secretase 1 (P56818 whole entry): as above
T2 sequence (P22303 whole entry): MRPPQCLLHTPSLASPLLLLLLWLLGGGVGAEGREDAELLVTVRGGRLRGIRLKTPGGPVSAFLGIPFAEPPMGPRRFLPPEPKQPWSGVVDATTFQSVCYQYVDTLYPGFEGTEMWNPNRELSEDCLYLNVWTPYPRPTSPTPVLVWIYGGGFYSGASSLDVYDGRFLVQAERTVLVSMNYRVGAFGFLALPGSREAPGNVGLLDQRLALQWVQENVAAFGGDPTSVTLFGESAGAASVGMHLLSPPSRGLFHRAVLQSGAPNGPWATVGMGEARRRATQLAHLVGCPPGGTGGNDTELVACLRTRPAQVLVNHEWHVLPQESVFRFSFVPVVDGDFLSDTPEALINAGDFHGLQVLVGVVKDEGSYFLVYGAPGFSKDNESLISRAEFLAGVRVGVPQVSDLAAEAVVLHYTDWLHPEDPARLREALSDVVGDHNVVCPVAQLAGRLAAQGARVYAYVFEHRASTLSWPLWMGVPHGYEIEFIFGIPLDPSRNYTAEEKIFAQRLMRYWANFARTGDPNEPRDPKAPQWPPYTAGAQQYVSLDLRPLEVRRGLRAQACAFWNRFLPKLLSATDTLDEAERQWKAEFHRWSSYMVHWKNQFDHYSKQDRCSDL

| Structure (SMILES) | Ki [1] [µM] | inhibition [2] | Ratio Ki [3] | Ratio IC50 [4] | inhibition [5] | Ki [6] [nM] | IC50 [7] [nM] | IC50 [8] [µM] | Ki [9] [µM] | inhibition [10] | IC50 [11] [nM] | Ki [12] [nM] |
| --- | --- | --- | --- | --- | --- | --- | --- | --- | --- | --- | --- | --- |
| COc1cc2c(cc1O)C/C(=C\C1CCN(Cc3ccccc3)CC1)C2=O | 10.6 | inactive | 4 | 5 | Active | 2820 | 1540 | 7.35 | – | – | – | – |
| COc1ccc2c(c1)C(=O)/C(=C/C1CCN(Cc3ccccc3)CC1)C2 | – | inactive | 4 | 8 | Active | 260 | 342 | 2.65 | 1.14 | – | – | – |
| COc1cccc(CN2CCC(/C=C3\Cc4cc(OC)ccc4C3=O)CC2)c1 | 3.49 | inactive | 6 | 3 | Active | 554 | 853 | 2.17 | – | Active | < 1000 | – |
| COc1cccc(CN2CCC(/C=C3\Cc4ccc(OC)cc4C3=O)CC2)c1 | 3.89 | inactive | < 1 | < 1 | Active | 119000 | 34500 | 1.62 | – | – | – | – |
| O=C1/C(=C/C2CCN(Cc3ccccc3)CC2)Cc2cc3c(cc21)OCO3 | 7.25 | inactive | 7 | 20 | Active | – | 755 | 15.1 | – | Active | < 1000 | 980 |
| COc1ccc2c(c1)C(=O)/C(=C/C1CCN(Cc3ccc4c(c3)OCO4)CC1)C2 | 4.33 | inactive | – | – | Active | – | – | 9.82 | – | inactive | – | – |
| COc1ccc2c(c1)C/C(=C\C1CCN(Cc3ccccc3)CC1)C2=O | 3.14 | inactive | 110 | 132 | Active | 29 | 43 | 5.73 | – | Active | < 1000 | – |
| O=C1/C(=C/C2CCN(Cc3ccccc3)CC2)Cc2ccc(O)cc21 | 5.61 | inactive | 1 | 4 | Active | 4220 | 1500 | 5.8 | – | – | – | – |
| O=C1/C(=C/C2CCN(Cc3ccccc3)CC2)Cc2cc(O)ccc21 | – | inactive | 4 | 4 | Active | 1980 | 2160 | 7.59 | 8.46 | Active | < 1000 | – |
| O=C1/C(=C/C2CCN(Cc3ccccc3)CC2)Cc2cccc(O)c21 | – | inactive | 18 | 7 | Active | 355 | 636 | 4.76 | 6.48 | Active | < 1000 | – |
| COc1cc2c(cc1OC)C(=O)/C(=C/C1CCN(Cc3ccccc3)CC1)C2 | – | inactive | 71 | 81 | Active | 35 | 58 | 4.74 | 2.44 | Active | < 1000 | – |
| COc1cc2c(cc1O)C(=O)/C(=C/C1CCN(Cc3ccccc3)CC1)C2 | 10.6 | inactive | 4 | 5 | Active | 2820 | 1540 | 7.35 | – | – | – | – |
| COc1cccc2c1C(=O)/C(=C/C1CCN(Cc3ccccc3)CC1)C2 | – | inactive | 2 | 1 | Active | 1830 | 1510 | 1.14 | 3.1 | – | – | – |
| COc1cccc2c1C(=O)/C(=C/C1CCN(Cc3ccc4c(c3)OCO4)CC1)C2 | 6.44 | inactive | – | – | Active | – | – | 4.82 | – | inactive | – | – |
| COc1cccc(CN2CCC(/C=C3\Cc4cccc(OC)c4C3=O)CC2)c1 | 2.38 | inactive | < 1 | < 1 | Active | 17200 | 12200 | 5.41 | – | – | – | – |
